Test results taken from paper PMC8434884 (Journal of medicinal chemistry, 2020).

Legend:
[1] = molecular target: T1, human 5-HT2CR (unedited INI isoform) (Homo sapiens, UniProt P28335); conditions: 1 nM, 5-HT-induced Cai2+ release, h5-HT2CR-CHO cells
T1 sequence (P28335 33-458): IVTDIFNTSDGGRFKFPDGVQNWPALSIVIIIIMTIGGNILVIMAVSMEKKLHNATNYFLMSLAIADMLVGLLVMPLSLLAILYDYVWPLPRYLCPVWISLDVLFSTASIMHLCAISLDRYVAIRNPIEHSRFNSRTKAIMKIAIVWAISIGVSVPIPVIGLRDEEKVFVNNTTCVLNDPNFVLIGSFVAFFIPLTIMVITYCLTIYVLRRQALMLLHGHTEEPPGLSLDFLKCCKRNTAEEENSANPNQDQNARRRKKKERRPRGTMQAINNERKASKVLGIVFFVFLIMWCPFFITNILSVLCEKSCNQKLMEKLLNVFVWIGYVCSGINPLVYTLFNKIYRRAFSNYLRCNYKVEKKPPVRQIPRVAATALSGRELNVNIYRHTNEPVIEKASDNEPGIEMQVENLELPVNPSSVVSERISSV

[2] = molecular target: T1, human 5-HT2CR (unedited INI isoform); conditions: cited from earlier work
[3] = molecular target: DAT (Homo sapiens, UniProt Q01959); conditions: 10 μM; cited from earlier work
[4] = test system: rats; conditions: cited from earlier work
[5] = molecular target: D3 (Homo sapiens, UniProt P35462); conditions: 10 μM; cited from earlier work
[6] = test system: rats; conditions: cited from earlier work; remark: listed apart in the source
[7] = molecular target: T2, α 2A (Homo sapiens, UniProt P08913); conditions: 10 μM; cited from earlier work
T2 sequence (P08913 1-465): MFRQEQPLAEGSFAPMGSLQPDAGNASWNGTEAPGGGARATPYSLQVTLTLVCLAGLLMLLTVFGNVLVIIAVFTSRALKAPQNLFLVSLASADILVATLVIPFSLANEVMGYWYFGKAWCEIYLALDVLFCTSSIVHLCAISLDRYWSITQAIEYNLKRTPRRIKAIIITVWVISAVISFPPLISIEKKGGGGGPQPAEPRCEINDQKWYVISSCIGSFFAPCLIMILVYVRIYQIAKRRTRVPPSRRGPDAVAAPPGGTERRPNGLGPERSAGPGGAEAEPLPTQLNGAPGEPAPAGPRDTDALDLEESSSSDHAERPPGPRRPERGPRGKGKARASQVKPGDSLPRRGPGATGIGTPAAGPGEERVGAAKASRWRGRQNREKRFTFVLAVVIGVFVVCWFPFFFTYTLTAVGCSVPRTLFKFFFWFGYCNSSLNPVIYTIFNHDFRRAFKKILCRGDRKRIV

[8] = molecular target: T3, α 2B (Homo sapiens, UniProt P18089); conditions: 10 μM; cited from earlier work
T3 sequence (P18089 1-450): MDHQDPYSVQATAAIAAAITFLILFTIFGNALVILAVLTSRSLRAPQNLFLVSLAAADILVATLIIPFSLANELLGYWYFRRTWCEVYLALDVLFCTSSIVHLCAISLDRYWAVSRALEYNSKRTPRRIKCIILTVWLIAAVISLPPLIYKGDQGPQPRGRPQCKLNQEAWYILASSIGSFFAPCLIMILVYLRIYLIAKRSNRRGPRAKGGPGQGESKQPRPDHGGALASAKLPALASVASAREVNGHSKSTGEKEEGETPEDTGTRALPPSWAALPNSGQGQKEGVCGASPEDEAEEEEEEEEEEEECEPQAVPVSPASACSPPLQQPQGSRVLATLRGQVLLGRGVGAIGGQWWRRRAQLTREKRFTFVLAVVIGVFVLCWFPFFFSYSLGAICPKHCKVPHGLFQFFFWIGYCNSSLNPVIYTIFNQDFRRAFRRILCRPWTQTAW

[9] = test system: male Sprague–Dawley rats; assay: WAY163909 versus saline two-lever drug discrimination assay; assay type: in vivo, rat
[10] = test system: male Sprague–Dawley rats; conditions: previous study; cited from earlier work

Chain of D3 (P35462 whole entry): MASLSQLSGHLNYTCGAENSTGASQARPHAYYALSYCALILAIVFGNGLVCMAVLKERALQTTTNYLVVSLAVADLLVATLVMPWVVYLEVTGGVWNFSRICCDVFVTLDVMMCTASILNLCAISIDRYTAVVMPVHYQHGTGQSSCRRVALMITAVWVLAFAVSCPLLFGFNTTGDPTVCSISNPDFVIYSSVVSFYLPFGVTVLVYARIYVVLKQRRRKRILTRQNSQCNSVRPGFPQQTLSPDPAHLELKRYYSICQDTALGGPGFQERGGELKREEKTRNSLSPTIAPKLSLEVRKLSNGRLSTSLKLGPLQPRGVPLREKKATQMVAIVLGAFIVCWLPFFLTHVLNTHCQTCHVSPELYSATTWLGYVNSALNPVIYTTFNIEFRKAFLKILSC
Chain of DAT (Q01959 whole entry): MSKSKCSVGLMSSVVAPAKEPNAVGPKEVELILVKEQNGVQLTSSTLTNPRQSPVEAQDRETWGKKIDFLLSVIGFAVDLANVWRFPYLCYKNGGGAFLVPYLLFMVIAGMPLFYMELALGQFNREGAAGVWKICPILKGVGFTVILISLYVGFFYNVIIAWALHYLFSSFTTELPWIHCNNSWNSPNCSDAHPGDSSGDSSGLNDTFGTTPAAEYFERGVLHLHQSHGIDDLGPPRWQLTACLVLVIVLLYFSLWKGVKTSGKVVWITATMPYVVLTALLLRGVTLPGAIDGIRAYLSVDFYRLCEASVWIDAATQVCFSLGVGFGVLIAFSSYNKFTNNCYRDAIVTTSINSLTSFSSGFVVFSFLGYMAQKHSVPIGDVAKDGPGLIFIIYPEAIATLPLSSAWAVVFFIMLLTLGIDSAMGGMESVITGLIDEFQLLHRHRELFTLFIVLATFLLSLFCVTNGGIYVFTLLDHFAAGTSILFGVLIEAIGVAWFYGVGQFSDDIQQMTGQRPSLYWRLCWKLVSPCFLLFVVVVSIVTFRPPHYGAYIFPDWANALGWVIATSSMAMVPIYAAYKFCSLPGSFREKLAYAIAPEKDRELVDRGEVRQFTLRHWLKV

O=C(NC(CO)CO)[C@@H]1C[C@H](c2ccccc2)CCN1 (racemic) [Compound 14, (2,4-cis)-N-(1,3-Dihydroxypropan-2-yl)-4-phenylpiperidine-2-carboxamide]
5-HT2CR positive allosteric modulator activity (in words) [1]: did promote PAM activity

O=C(NC(CO)CO)[C@@H]1C[C@H](C2CCCCC2)CCN1 (racemic) [Compound 15, (2,4-cis)-4-Cyclohexyl-N-(1,3-dihydroxypropan-2-yl)piperidine-2-carboxamide]
5-HT2CR positive allosteric modulator activity (in words) [1]: did not result in positive allosteric effects

O=C(NCCN1CCOCC1)[C@@H]1C[C@H](c2ccccc2)CCN1 (racemic) [Compound 16, (2,4-cis)-N-(2-Morpholinoethyl)-4-phenylpiperidine-2-carboxamide]
5-HT2CR positive allosteric modulator activity (in words) [1]: did not result in positive allosteric effects

O=C(NCCN1CCOCC1)[C@@H]1C[C@H](C2CCCCC2)CCN1 (racemic) [Compound 17, (2,4-cis)-4-Cyclohexyl-N-(2-morpholinoethyl)piperidine-2-carboxamide]
5-HT2CR positive allosteric modulator activity (in words) [1]: did not result in positive allosteric effects

O=C(NCCN1CCOCC1)[C@@H]1C[C@H](CCC2CCCCC2)CCN1 (racemic) [Compound 34, (2,4-cis)-4-(2-Cyclohexylethyl)-N-(2-morpholinoethyl)piperidine-2-carboxamide]
5-HT2CR positive allosteric modulator activity (in words) [1]: did not produce PAM effects

O=C(NCCCN1CCOCC1)[C@@H]1C[C@H](CCC2CCCCC2)CCN1 (racemic) [Compound 35, (2,4-cis)-4-(2-Cyclohexylethyl)-N-(3-morpholinopropyl)-piperidine-2-carboxamide]
5-HT2CR positive allosteric modulator activity (in words) [1]: did produce PAM effects

O=C(NCCN1CCOCC1)[C@@H]1C[C@H](CCc2ccccc2)CCN1 (racemic) [Compound 36, (2,4-cis)-N-(2-Morpholinoethyl)-4-phenethylpiperidine-2-carboxamide]
5-HT2CR positive allosteric modulator activity (in words) [1]: did not produce PAM effects

O=C(NCCCN1CCOCC1)[C@@H]1C[C@H](CCc2ccccc2)CCN1 (racemic) [Compound 37, (2,4-cis)-N-(3-Morpholinopropyl)-4-phenethylpiperidine-2-carboxamide]
5-HT2CR positive allosteric modulator activity (in words) [1]: did produce PAM effects

O=C(NC(CO)C(O)c1ccccc1)C1C[C@@H](c2ccccc2)CCN1 (stereo in doubt) [Compound (2R,4S)-11, (2S,4S)-N-((1S,2S)-1,3-Dihydroxy-1-phenylpropan-2-yl)-4-phenylpiperidine-2-carboxamide]
5-HT2CR positive allosteric modulator activity (in words) [1]: modest allosteric activity

CCCCCCCCCCC[C@@H]1CCN[C@H](C(=O)N[C@@H]([C@H]2O[C@H](SC)[C@H](O)[C@@H](O)[C@H]2O)[C@H](C)Cl)C1.Cl [Compound 1]
shift of the 5-HT-evoked Cai2+ response curve ([2]; titration studies): evoked a leftward shift

CCCCCCCCCCC[C@@H]1CCN[C@H](C(=O)NCC(O)CO)C1 (stereo partly drawn) [Compound 3]
inhibition of radioligand binding [3]: 66.3% | effect on locomotor activity [4]: decrease locomotor activity | inhibition of radioligand binding [5]: 71.7% | effect on cocaine-seeking during abstinence from cocaine self-administration [6]: suppress cocaine-seeking | inhibition of radioligand binding [7]: 85.1% | inhibition of radioligand binding [8]: 80.7% | Emax RFU (% 5-HT) ([2]; compound 1 nM, 5-HT-induced Cai2+ release, h5-HT2CR-CHO cells): 123.2 ± 4.1 % 5-HT | effect on Cai2+ release in the absence of 5-HT ([2]; h5-HT2CR-CHO cells): no effect on Cai^2+ release

Cc1cc2c(cc1Cl)N(C(=O)Nc1ccc(Oc3cccnc3C)nc1)CC2.Cl.Cl [SB242084, 6-chloro-5-methyl-1-[[2-(2-methylpyrid-3-yloxy)pyrid-5-yl]carbamoyl]indoline dihydrochloride, reference compound]
blockade of substitution of 12 (2 mg/kg) plus WAY163909 (0.5 mg/kg) ([9]; SB242084 0.5 mg/kg pretreatment, 13/13 rats): completely prevented the substitution

c1cc2c3c(c1)[C@H]1CCC[C@H]1N3CCNC2 [WAY163909, (7b-R,10a-R)-1,2,3,4,8,9,10,10a-octahydro-7bH-cyclopenta[b][1,4] diazepino[6,7,1hi]indole, reference compound]
dose predicted to result in 50% drug-associated responses (ED50) [10]: 0.53 mg/kg | percentage of rats selecting the WAY163909-associated lever ([9]; WAY163909 0.125 mg/kg ip, substitution test, n = 13): 0%
